{"source": "patent US20240252673A1", "about": "“ANTI-TISSUE FACTOR ANTIBODY-DRUG CONJUGATES AND THEIR USE IN THE TREATMENT OF CANCER” (priority 2017, published 2024)", "system": "locally advanced and/or metastatic cancer of various types including cervical cancer", "test": "Phase I/II dose-escalation study: anti-tumor activity per RECIST v1.1 (CT scans every six weeks)", "type": "in vivo, human", "protocol": "A first-in-human phase I/II dose-escalating study following a 3+3 dose-escalation design was conducted in order to test the safety of tisotumab vedotin in 27 subjects with locally advanced and/or metastatic cancer of various types including cervical cancer (FIG. 2). Tisotumab vedotin was administered by intravenous infusion at doses ranging from 0.3 mg/kg to 2.2 mg/kg on day 1 of a 21-day cycle for four cycles (i.e., each treatment cycle was 3 weeks). Patients with stable disease (SD) or better at the end of four cycles had the option to continue treatment with tisotumab vedotin for eight additional cycles (FIG. 2). Tumor evaluations were performed by CT scans every six weeks. In order to qualify for SD, results of the CT scan scheduled for week six needed to be SD or better. Two CT scans were performed outside the per-protocol defined window.\nA primary objective of the study was to assess the safety and tolerability in a mixed population of patients with specified solid tumors. Adverse event (AE) severity was graded according to Common Terminology Criteria for Adverse Events (CTCAE) version 4.03. Secondary objectives of the study included determining the pharmacokinetic (PK) profile of tisotumab vedotin and preliminary evaluation of anti-tumor activity as assessed according to Response Evaluation Criteria in Solid Tumors [RECIST] version 1.1. Dose-limiting toxicities (DLTs) were determined during the first cycle and were defined as grade≥3 events possibly related to tisotumab vedotin. […] Tumor biopsies were required at baseline for TF expression which was assessed by immunohistochemistry utilizing tisotumab. TF staining intensity was determined using the H-scoring system.", "key": {"[1]": {"conditions": "Patient 2, cervical cancer, 1.2 mg/kg"}}}
{"substance": "tisotumab vedotin", "values": [{"measurement": "Confirmed Response per RECIST v1.1: Complete response (CR)", "setting": "0.3 mg/kg (n = 3)", "result": 0, "unit": "n"}, {"measurement": "Confirmed Response per RECIST v1.1: Not evaluable", "setting": "0.3 mg/kg (n = 3)", "result": 0, "unit": "n"}, {"measurement": "Confirmed Response per RECIST v1.1: Partial response (PR)", "setting": "0.3 mg/kg (n = 3)", "result": 0, "unit": "n"}, {"measurement": "Confirmed Response per RECIST v1.1: Complete response (CR)", "setting": "0.6 mg/kg (n = 3)", "result": 0, "unit": "n"}, {"measurement": "Confirmed Response per RECIST v1.1: Partial response (PR)", "setting": "0.6 mg/kg (n = 3)", "result": 0, "unit": "n"}, {"measurement": "Confirmed Response per RECIST v1.1: Complete response (CR)", "setting": "0.9 mg/kg (n = 3)", "result": 0, "unit": "n"}, {"measurement": "Confirmed Response per RECIST v1.1: Not evaluable", "setting": "0.9 mg/kg (n = 3)", "result": 0, "unit": "n"}, {"measurement": "Confirmed Response per RECIST v1.1: Partial response (PR)", "setting": "0.9 mg/kg (n = 3)", "result": 0, "unit": "n"}, {"measurement": "Confirmed Response per RECIST v1.1: Complete response (CR)", "setting": "1.2 mg/kg (n = 3)", "result": 0, "unit": "n"}, {"measurement": "Confirmed Response per RECIST v1.1: Not evaluable", "setting": "1.2 mg/kg (n = 3)", "result": 0, "unit": "n"}, {"measurement": "Confirmed Response per RECIST v1.1: Complete response (CR)", "setting": "1.5 mg/kg (n = 3)", "result": 0, "unit": "n"}, {"measurement": "Confirmed Response per RECIST v1.1: Not evaluable", "setting": "1.5 mg/kg (n = 3)", "result": 0, "unit": "n"}, {"measurement": "Confirmed Response per RECIST v1.1: Partial response (PR)", "setting": "1.5 mg/kg (n = 3)", "result": 0, "unit": "n"}, {"measurement": "Confirmed Response per RECIST v1.1: Complete response (CR)", "setting": "1.8 mg/kg (n = 3)", "result": 0, "unit": "n"}, {"measurement": "Confirmed Response per RECIST v1.1: Not evaluable", "setting": "1.8 mg/kg (n = 3)", "result": 0, "unit": "n"}, {"measurement": "Confirmed Response per RECIST v1.1: Partial response (PR)", "setting": "1.8 mg/kg (n = 3)", "result": 0, "unit": "n"}, {"measurement": "Confirmed Response per RECIST v1.1: Progressive disease (PD)", "setting": "1.8 mg/kg (n = 3)", "result": 0, "unit": "n"}, {"measurement": "Confirmed Response per RECIST v1.1: Complete response (CR)", "setting": "2.0 mg/kg (n = 3)", "result": 0, "unit": "n"}, {"measurement": "Confirmed Response per RECIST v1.1: Not evaluable", "setting": "2.0 mg/kg (n = 3)", "result": 0, "unit": "n"}, {"measurement": "Confirmed Response per RECIST v1.1: Partial response (PR)", "setting": "2.0 mg/kg (n = 3)", "result": 0, "unit": "n"}, {"measurement": "Confirmed Response per RECIST v1.1: Complete response (CR)", "setting": "2.2 mg/kg (n = 6)", "result": 0, "unit": "n"}, {"measurement": "Confirmed Response per RECIST v1.1: Not evaluable", "setting": "2.2 mg/kg (n = 6)", "result": 0, "unit": "n"}, {"measurement": "Confirmed Response per RECIST v1.1: Partial response (PR)", "setting": "2.2 mg/kg (n = 6)", "result": 0, "unit": "n"}, {"measurement": "reduction in tumor size relative to baseline", "setting": "Patient 1, cervical cancer, 2.2 mg/kg", "result": "about 20%"}, {"measurement": "best response", "setting": "[1]", "result": "confirmed PR"}, {"measurement": "continued benefit, total duration", "setting": "[1]", "result": 15, "unit": "months"}, {"measurement": "reduction in tumor size relative to baseline (target lesion)", "setting": "Patient 2, stage 4 cervical cancer, 3 prior lines, 1.2 mg/kg", "result": "about 51%"}, {"measurement": "Confirmed Response per RECIST v1.1: Complete response (CR)", "setting": "all doses (n = 27)", "result": 0, "unit": "n"}, {"measurement": "disease control rate (DCR; PR+SD)", "setting": "all doses, 26 patients evaluated", "result": 46, "unit": "%"}, {"measurement": "patients withdrew from treatment due to disease progression", "setting": "all doses, 27 patients", "result": 67, "unit": "%"}, {"measurement": "disease control rate (DCR; PR+SD), patients", "setting": "all doses, out of 26 patients", "result": 12, "unit": "patients"}]}
